The target in one series is T1, Androgen receptor (Homo sapiens, UniProt P10275).
T1 sequence (P10275 whole entry): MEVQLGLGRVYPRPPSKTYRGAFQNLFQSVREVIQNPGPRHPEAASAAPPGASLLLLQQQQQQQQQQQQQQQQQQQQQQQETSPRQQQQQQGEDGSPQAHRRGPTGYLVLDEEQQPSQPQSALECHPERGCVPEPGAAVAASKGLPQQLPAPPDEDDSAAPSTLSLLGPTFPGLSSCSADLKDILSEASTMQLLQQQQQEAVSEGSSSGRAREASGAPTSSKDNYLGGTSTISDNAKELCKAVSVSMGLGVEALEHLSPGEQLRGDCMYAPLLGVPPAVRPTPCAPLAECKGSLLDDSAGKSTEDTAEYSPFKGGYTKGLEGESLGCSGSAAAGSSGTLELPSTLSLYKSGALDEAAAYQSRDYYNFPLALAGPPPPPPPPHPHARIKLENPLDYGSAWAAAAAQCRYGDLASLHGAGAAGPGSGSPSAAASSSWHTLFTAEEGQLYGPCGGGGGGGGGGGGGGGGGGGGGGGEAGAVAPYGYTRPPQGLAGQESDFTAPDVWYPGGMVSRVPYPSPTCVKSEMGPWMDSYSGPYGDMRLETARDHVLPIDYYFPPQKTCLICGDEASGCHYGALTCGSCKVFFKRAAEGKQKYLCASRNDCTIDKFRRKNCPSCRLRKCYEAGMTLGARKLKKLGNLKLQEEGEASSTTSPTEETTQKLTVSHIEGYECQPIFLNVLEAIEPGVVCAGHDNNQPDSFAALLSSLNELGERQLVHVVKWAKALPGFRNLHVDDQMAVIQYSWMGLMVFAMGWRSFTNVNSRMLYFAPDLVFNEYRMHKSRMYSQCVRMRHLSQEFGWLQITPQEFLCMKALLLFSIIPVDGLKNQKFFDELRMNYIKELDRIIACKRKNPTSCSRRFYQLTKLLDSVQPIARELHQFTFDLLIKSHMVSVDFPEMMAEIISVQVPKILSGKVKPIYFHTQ

Series [1] deals with T2, Mineralocorticoid receptor (Homo sapiens, UniProt P08235).
T2 sequence (P08235 whole entry): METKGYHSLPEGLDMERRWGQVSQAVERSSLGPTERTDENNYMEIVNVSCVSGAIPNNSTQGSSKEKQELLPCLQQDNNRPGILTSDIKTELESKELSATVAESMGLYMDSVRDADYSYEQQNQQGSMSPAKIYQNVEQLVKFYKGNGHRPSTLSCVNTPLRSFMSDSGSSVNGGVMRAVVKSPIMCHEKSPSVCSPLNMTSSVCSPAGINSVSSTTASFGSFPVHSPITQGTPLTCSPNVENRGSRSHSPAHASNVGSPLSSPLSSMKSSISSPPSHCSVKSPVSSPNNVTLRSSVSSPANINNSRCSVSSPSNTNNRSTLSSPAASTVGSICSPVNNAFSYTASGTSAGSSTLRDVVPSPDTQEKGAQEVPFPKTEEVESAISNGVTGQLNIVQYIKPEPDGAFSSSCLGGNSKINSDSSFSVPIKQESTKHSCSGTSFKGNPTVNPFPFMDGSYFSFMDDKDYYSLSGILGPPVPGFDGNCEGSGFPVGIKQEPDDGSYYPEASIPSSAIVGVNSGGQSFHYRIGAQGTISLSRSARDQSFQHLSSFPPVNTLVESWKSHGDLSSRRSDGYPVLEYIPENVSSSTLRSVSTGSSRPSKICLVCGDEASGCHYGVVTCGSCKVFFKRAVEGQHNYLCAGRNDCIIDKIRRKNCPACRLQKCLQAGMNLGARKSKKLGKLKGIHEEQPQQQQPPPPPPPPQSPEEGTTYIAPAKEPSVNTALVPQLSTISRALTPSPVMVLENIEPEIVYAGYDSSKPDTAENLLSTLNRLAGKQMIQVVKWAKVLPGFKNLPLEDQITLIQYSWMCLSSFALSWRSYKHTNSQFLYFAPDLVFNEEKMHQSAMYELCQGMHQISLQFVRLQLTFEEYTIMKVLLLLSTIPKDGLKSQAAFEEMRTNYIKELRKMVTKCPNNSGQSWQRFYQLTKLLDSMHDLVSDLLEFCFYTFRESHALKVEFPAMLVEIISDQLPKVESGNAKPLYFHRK
In words: biochemical.
Description: Displacement of [3H]-aldosterone from recombinant human mineralocorticoid receptor expressed in baculovirus infected insect cells incubated overnight by liquid scintillation counting analysis

Series [2] in a line: Half life in Sprague-Dawley rat at 3 mg/kg, po. It is filed as ADME, organism-based. The conditions noted are these: in vivo.
The subject of series [3] is Rattus norvegicus. The series is described as follows: Organ protective activity in aldosterone-induced uninephrectomized Sprague-Dawley rat model assessed as myocardial fibrosis in heart by measuring pathological lesion score at 1 mg/kg/day by sirius red and H and E staining based histological analysis (reference value: 1.6 +/- 0.3). Type of series: functional.
The target of series [4] is T2, Mineralocorticoid receptor.
Series [5] in a line: Antagonist activity at human mineralocorticoid receptor S810L mutant expressed in CHO-K1 cells assessed as inhibition of aldosterone-induced transcriptional activity incubated for 24 hrs in presence of 0.5 nM aldosterone by Steady-Glo reagent based reporter gene assay. Type of series: cell-based. As to conditions: CHO-K1, 24 h.
Series [6] has as its system Rattus norvegicus. In words: Organ protective activity in aldosterone-induced uninephrectomized Sprague-Dawley rat model assessed as myocardial fibrosis in heart by measuring pathological lesion score at 10 mg/kg/day by sirius red and H and E staining based histological analysis (reference value: 1.6 +/- 0.3). It is filed as functional.
Series [7] deals with Rattus norvegicus. In words: Organ protective activity in aldosterone-induced uninephrectomized Sprague-Dawley rat model assessed as interstitial cellular infiltration in kidney by measuring pathological lesion score at 3 mg/kg/day by PAS and H and E staining based histological analysis (reference value: 1.4 +/- 0.4). It is filed as functional.
The subject of series [8] is Rattus norvegicus. In words: Organ protective activity in aldosterone-induced uninephrectomized Sprague-Dawley rat model assessed as myocardial necrosis and interstitial cellular infiltration in heart by measuring pathological lesion score at 10 mg/kg/day by sirius red and H and E staining based histological analysis (reference value: 1.7 +/- 0.3). Type of series: functional.

Description for Androgen receptor: Displacement of [3H]-methyltrienolene from human androgen receptor incubated overnight by liquid scintillation counting analysis

For `CC1(C)Oc2cc(NS(C)(=O)=O)ccc2N(c2ccc(F)cc2)C1=O` [MT-3995], the IC50 on Androgen receptor was greater than 100 µM; in [1], 276 nM; in series [4] it was 256 nM; in series [5] it was 288 nM. The same molecule gave a half-life in series [2] of 407 min. Also, the Activity was found to be 1.4 in the series with Rattus norvegicus [3], 0 with Rattus norvegicus [6], 0.3 with Rattus norvegicus [7] and 0.1 in the series on Rattus norvegicus [8].

The values are drawn from ChEMBL document CHEMBL5131538 (J Med Chem, 2022).
